Measured values published in patent publication US20250296938A1, “Compounds that Interact with the Ras Superfamily for the Treatment of Cancers, Inflammatory Diseases, Rasopathies, and Fibrotic Disease” (SHY Therapeutics, LLC, priority 2018, published 2025).
Like-named read-outs stand apart in the source and are kept apart here.

How the values were obtained:
Rac-1 = Rac-1 (Homo sapiens, UniProt P63000); assay: Ras GTP binding domain inhibition assay (Cy3-GTP/Cy5-GTP competition)
How it was run: (§1)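 First, His-tagged protein is coated on nickel wells overnight at 4 °C. Next, compound (20 μM single point or serial dilution) is added for 3 h at room temperature, with or without Sos exchange factor in the last hour. Finally, 100 nM labelled GTP binds for 45 min and retained signal is measured.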

Rho-A = Rho-A (Homo sapiens, UniProt P61586); assay: as above; settings: for Rho-A + SOS: % inh. / Rho-A: % inh.: at 20 μM
How it was run: as §1

KRas G12D mutant = target: T1, KRas G12D mutant (Homo sapiens, UniProt P01116, G12D); assay: as above; settings: at 20 μM
T1 construct: fused on or other part: His tag, used for capture on nickel-coated plates
How it was run: (§2)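 His-tagged Ras immobilized on nickel-coated wells in Tris buffer (pH 7.4 or 7.0) with 1 mM MgCl2, 1 mM DTT, 1% DMSO. Compound (20 μM, or serial dilution for IC50) incubated 3 hours at room temperature, ± Sos (residues 556-1049) in final hour. Bound 100 nM Cy3-/Cy5-GTP read after 45 minutes and washing.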

HRas wild type = assay: as above; set-up: species or system human; settings: at 20 μM; for HRAS wild type + SOS: % inh.: with SOS; for HRas wild type % inh.: without SOS
How it was run: as §2

TNF-α = assay: Mouse TNF alpha quantification assay, LPS-stimulated RAW 264.7 macrophages; type: cell-based; settings: RAW264.7, 10 μM, LPS (100 ng/ml) added concurrently, 5 hours, RAW 264.7, read-out: TNFα % Inhibition
Protocol: (§3) Cell lines: Abelson murine leukemia virus transformed macrophage cell line RAW 264.7 was purchased from ATCC and grown in complete DMEM-High Glucose medium supplemented with penicillin (100 U/mL), streptomycin (100 μg/mL), and 10% heat-inactivated FBS at 37° C. in a humidified incubator with 5% CO2.
(§4) Method: Cells were plated at 25000-40000 cells/well density in a 96-well plate. After a 3-hour incubation, macrophages were starved with DMEM plus 0.5% FBS overnight. The next day the small molecules to be tested were added to the cells in the final concentration of 30 μM (with 0.3% DMSO) 3 hours prior to LPS stimulation (100 ng/ml). After LPS stimulation cells were incubated at 37° C. for 16 h. Alternatively, compounds were also tested at 10 μM and LPS (100 ng/ml) was added concurrently and incubated 5 hours at 37° C. At the end of the incubation periods, culture medium was collected and production of LPS-induced TNF-α and IL-6 cytokine was measured using ELISA detection kits.
(§5) Sandwich ELISA: The ELISA Immunoassays Quantikine Mouse TNF-alpha (catalog number MTA00B) and IL6 (catalog number M6000B) were purchased from R&D Systems Inc., Minneapolis, MN. These 4.5 hours solid phase ELISAs were used to measure mouse TNF-α or IL-6 levels in macrophages culture supernatants. Assays were executed according to the manufacturer specifications.

IL-6 = assay: Mouse IL6 quantification assay, LPS-stimulated RAW 264.7 macrophages; type: cell-based; settings: RAW264.7, 10 μM, LPS (100 ng/ml) added concurrently, 5 hours, RAW 264.7
Protocol: as §3, §4, §5

[1] = with SOS, read-out: Rac-1 + SOS: % inh.
[2] = without SOS, read-out: Rac-1: % inh.
[3] = with SOS, read-out: Rho-A + SOS: % inh.
[4] = without SOS, read-out: Rho-A: % inh.
[5] = with SOS, read-out: KRas G12D mutant + SOS: % inh.
[6] = without SOS, read-out: KRas G12D mutant: % inh.

Compound | inhibition at 20 µM (Rac-1; [1]) | inhibition at 20 µM (Rac-1; [2]) | inhibition at 20 µM (Rho-A; [3]) | inhibition at 20 µM (Rho-A; [4]) | inhibition at 20 µM (KRas G12D mutant; [5]) | inhibition at 20 µM (KRas G12D mutant; [6]) | HRAS wild type + SOS: % inh. (HRas wild type) | HRas wild type % inh. (HRas wild type) | inhibition at 10 µM (TNF-α) | inhibition at 10 µM (IL-6) | other results
Cn1ccc(-c2sc3nc(-c4nccn4C)nc(N[C@@H]4CC[C@H](O)C4)c3c2C2=CC=CCC=C2)n1 (racemic) | 1 to 25% | 1 to 25% | 1 to 25% | 26 to 50% | 0% | 0% | A (1-25% inhibition) | C (51-75% inhibition) | – | – | –
CO[C@H]1C[C@@H](Nc2nc(-c3ncc[nH]3)nc3sc(-c4ccn(C)n4)c(-c4ccccc4)c23)C1 [drawing 775] | – | – | – | – | – | – | – | – | 1 to 25% | 76 to 100% | –
CO[C@H]1CC[C@@H](Nc2nc(-c3ncc[nH]3)nc3sc(-c4ccn(C)n4)c(-c4ccccc4)c23)C1 [drawing 776] | – | – | – | – | – | – | – | – | 26 to 50% | 76 to 100% | –
CO[C@H]1CC[C@@H](Nc2nc(-c3nccn3C)nc3sc(-c4ccn(C(C)C)n4)c(-c4ccccc4)c23)C1 [drawing 777] | – | – | – | – | – | – | – | – | 76 to 100% | 76 to 100% | –
COc1nc(-c2ccccn2)nc2c(-c3ccccn3)csc12 [drawing 778] | – | – | – | – | – | – | – | – | 1 to 25% | 51 to 75% | –
CO[C@H]1C[C@@H](Nc2nc(-c3nccn3C)nc3sc(-c4ccn(C)n4)c(C)c23)C1 [drawing 779] | – | – | – | – | – | – | – | – | 1 to 25% | 76 to 100% | –
CO[C@H]1CC[C@@H](Nc2nc(-c3nccn3C)nc3sc(-c4ccn(C)n4)c(C)c23)C1 [drawing 780] | – | – | – | – | – | – | – | – | 1 to 25% | 76 to 100% | –
Cc1c(-c2ccn(C)n2)sc2nc(-c3nccn3C)nc(NCCCS(C)(=O)=O)c12 [drawing 781] | – | – | – | – | – | – | – | – | 1 to 25% | 1 to 25% | –
Cc1c(-c2ccn(C)n2)sc2nc(-c3nccn3C)nc(NCCCC(=O)N(C)C)c12 [drawing 782] | – | – | – | – | – | – | – | – | 1 to 25% | 1 to 25% | –
Cc1c(-c2ccn(C)n2)sc2nc(-c3nccn3C)nc(NCCOC(=O)N(C)C)c12 [drawing 783] | – | – | – | – | – | – | – | – | 26 to 50% | 51 to 75% | –
CO[C@H]1CC[C@@H](Nc2nc(-c3nccn3C)nc3sc(-c4ccn(C(C)C)n4)c(C)c23)C1 [drawing 784] | – | – | – | – | – | – | – | – | 26 to 50% | 51 to 75% | –
CO[C@H]1C[C@@H](Nc2nc(-c3nccn3C)nc3sc(C(=O)NC(C)C)c(-c4ccccc4)c23)C1 [drawing 785] | – | – | – | – | – | – | – | – | 0% | 1 to 25% | –
COCCNC(=O)c1sc2nc(-c3nccn3C)nc(N[C@H]3C[C@@H](OC)C3)c2c1-c1ccccc1 [drawing 786] | – | – | – | – | – | – | – | – | 0% | 26 to 50% | –
CO[C@H]1C[C@@H](Nc2nc(-c3nccn3C)nc3sc(C(=O)N4CCOCC4)c(-c4ccccc4)c23)C1 [drawing 787] | – | – | – | – | – | – | – | – | 1 to 25% | 1 to 25% | –
COC1CCN(C(=O)c2sc3nc(-c4nccn4C)nc(N[C@H]4C[C@@H](OC)C4)c3c2-c2ccccc2)C1 (stereo partly shown) [drawing 788] | – | – | – | – | – | – | – | – | 0% | 0% | –
CO[C@H]1CC[C@@H](Nc2nc(-c3nccn3C)nc3sc(C(=O)NC(C)C)c(-c4ccccc4)c23)C1 [drawing 789] | – | – | – | – | – | – | – | – | 1 to 25% | 51 to 75% | –
COCCNC(=O)c1sc2nc(-c3nccn3C)nc(N[C@@H]3CC[C@H](OC)C3)c2c1-c1ccccc1 [drawing 790] | – | – | – | – | – | – | – | – | 1 to 25% | 51 to 75% | –
CO[C@H]1CC[C@@H](Nc2nc(-c3nccn3C)nc3sc(C(=O)N4CCCC4)c(-c4ccccc4)c23)C1 [drawing 791] | – | – | – | – | – | – | – | – | 1 to 25% | 1 to 25% | –
CO[C@H]1CC[C@@H](Nc2nc(-c3nccn3C)nc3sc(C(=O)N4CCOCC4)c(-c4ccccc4)c23)C1 [drawing 792] | – | – | – | – | – | – | – | – | 1 to 25% | 26 to 50% | –
COc1cccc(-c2sc3nc(-c4nccn4C)nc(NC4CCC(OC)C4)c3c2-c2ccccc2)c1F (stereo not shown) [drawing 1018] | – | 51 to 75% | – | – | 51 to 75% | 26 to 50% | D (76-100% inhibition) | D (76-100% inhibition) | – | – | Rac-1 + SOS: % inh. (Rac-1; at 20 μM, with SOS): C (51-75% inhibition); Rho-A + SOS: % inh. (Rho-A; with SOS): C (51-75% inhibition); Rho-A: % inh. (Rho-A; without SOS): C (51-75% inhibition)
COc1cccc(-c2sc3nc(-c4nccn4C)nc(NC4CCC(OC)C4)c3c2-c2ccccc2)c1F (stereo not shown) [drawing 1020] | – | – | – | – | – | – | D (76-100% inhibition) | B (26-50% inhibition) | – | – | Rac-1 + SOS: % inh. (Rac-1; at 20 μM, with SOS): B (26-50% inhibition); Rac-1: % inh. (Rac-1; at 20 μM, without SOS): C (51-75% inhibition); Rho-A + SOS: % inh. (Rho-A; with SOS): A (1-25% inhibition); Rho-A: % inh. (Rho-A; without SOS): A (1-25% inhibition); KRas G12D mutant + SOS: % inh. (KRas G12D mutant; with SOS): C (51-75% inhibition); KRas G12D mutant: % inh. (KRas G12D mutant; without SOS): B (26-50% inhibition)
COC1CCC(Nc2nc(-c3nccn3C)nc3sc(-c4cccc5[nH]ncc45)c(-c4ccccc4)c23)C1 (stereo not shown) [drawing 1023] | 51 to 75% | 51 to 75% | 1 to 25% | 26 to 50% | 26 to 50% | 26 to 50% | D (76-100% inhibition) | B (26-50% inhibition) | – | – | –
CO[C@H]1C[C@@H](Nc2nc(-c3ccccn3)nc3sccc23)C1 [drawing 1037] | 76 to 100% | 76 to 100% | 51 to 75% | 76 to 100% | 51 to 75% | 51 to 75% | D (76-100% inhibition) | C (51-75% inhibition) | – | – | –
CO[C@H]1C[C@@H](Nc2nc(-c3nccn3C)nc3sccc23)C1 [drawing 1038] | 76 to 100% | 76 to 100% | 26 to 50% | 76 to 100% | 76 to 100% | 76 to 100% | D (76-100% inhibition) | C (51-75% inhibition) | – | – | –
CO[C@H]1C[C@@H](Nc2nc(-c3nccn3C)nc3sc(-c4ccn(C)n4)c(-c4ccccc4)c23)C1.Cl [drawing 1040] | 76 to 100% | 51 to 75% | 51 to 75% | 51 to 75% | 51 to 75% | 26 to 50% | D (76-100% inhibition) | B (26-50% inhibition) | – | – | –
CO[C@H]1C[C@H](Nc2nc(-c3nccn3C)nc3sc(-c4ccn(C)n4)c(-c4ccccc4)c23)C1 [drawing 1041] | 51 to 75% | 51 to 75% | 51 to 75% | 51 to 75% | 51 to 75% | 26 to 50% | D (76-100% inhibition) | B (26-50% inhibition) | – | – | –
CN(C)CCOCCNc1nc(-c2nccn2C)nc2sc(-c3ccn(C)n3)c(-c3ccccc3)c12 [drawing 1042] | 51 to 75% | 51 to 75% | 51 to 75% | 51 to 75% | 51 to 75% | 26 to 50% | D (76-100% inhibition) | B (26-50% inhibition) | – | – | –
Cn1ccc(-c2sc3nc(-c4nccn4C)nc(N[C@H]4C[C@@H](O)C4)c3c2-c2ccccc2)n1 [drawing 1043] | 1 to 25% | 1 to 25% | 26 to 50% | 26 to 50% | 0% | 0% | A (1-25% inhibition) | C (51-75% inhibition) | – | – | –
CO[C@H]1CC[C@@H](Nc2nc(-c3nccn3C)nc3sc(-c4ccn(C(C)C)n4)c(C)c23)C1 [drawing 1054] | 51 to 75% | 51 to 75% | 76 to 100% | 76 to 100% | 51 to 75% | 51 to 75% | D (76-100% inhibition) | C (51-75% inhibition) | – | – | –
